This is an account of results in patent US20070254859A1 (priority 2006, published 2007).

One series in a line: in vivo. The note with it: male, Wistar-Hannover, rat, plasma, po, 12 mg/kg.
For the next series, the system named is Caco-2 cells. The note with it: compound 30 μM on both sides, Rhodamine 123 10 μM, Bl-Ap direction, Caco-2 monolayers; read from FIG. 2.

Procedure for in vivo: Male, Wistar-Hannover rats (257-313 g) were used; animals were cannulated in the jugular vein for blood sampling. Animals were individually housed at 18-26° C. with 30-70% humidity. Animals were allowed free movement and access to water with 12 h dark and light cycles. Dosing was 2-4 h after the beginning of a light cycle and dosing time across each group was consistent. All animals had access to water, ad libitum, and were fasted 8 h prior to dosing; food was returned 5 h post-dose. Animals were dosed using a 1 mL syringe. Group 1, the intravenous group (raloxifene, 2.5 mg/kg), was dosed using an infusion rate of ˜0.3 mL per minute.
Sampling—using an AccuSampler®, blood samples (˜120 μL) were collected from 4 animals/group/time point from a catheter inserted into the jugular vein. Blood samples were taken and removed blood volume was replaced by an equivalent volume of intraperitoneal saline after each draw. Blood samples were centrifuged and plasma transferred into a designated well of a 96-well plate. Samples were kept frozen (−80±10° C.) until sample preparation and HPLC/MS/MS analysis.
Internal standard (IS) solution was prepared in a 500 mL volumetric flask containing 1:1 v/v acetonitrile:methanol and ˜0.04 μM of saquinavir base. Individually, the 96-well plates were removed from the freezer (−80±10° C.) and allowed to warm to ambient temperature (˜45-50 min). The in vivo plasma samples, either 25 or 50 μL, were transferred into separate 1.5 mL micro-centrifuge tubes. Total plasma volume was brought to ˜100 μL by adding male Wistar-Hannover plasma (potassium EDTA). Subsequently, 200 μL of IS solution was added, capped, mixed (˜5 sec) and centrifuged at 13,200 rpm for 10 mm using an Eppendorf minispin centrifuge. The supernatant (˜250 μL) was transferred into individual wells of a 96-well plate. The 96-well plate was sealed and centrifuged at 3000 rpm for 10 min at 10° C. […] The 96-well plate was then placed into the auto-sampler cool-stack (˜6° C.) and analyzed via LC/MS/MS. Raloxifene, and raloxifene glucuronide standard curves and quality control (QC's) samples were prepared in an analogous way as described above. […] The limit of detection (LOD) for raloxifene was ˜0.2 ng/mL while the glucuronides were ˜0.1 ng/mL.

With `O=C(c1ccc(OCCN2CCCCC2)cc1)c1c(-c2ccc(O)cc2)sc2cc(O)ccc12` [raloxifene], in the series “in vivo”, the AUC(0-t) – broadly, the area under the concentration-time curve up to a stated or last time point – came to 452 ng·h/mL; the peak concentration (Cmax) – broadly, the highest concentration seen after dosing – was 50 to 60 ng/mL; the time of peak concentration (Tmax) (commonly the time from dosing to the highest level) is around 4 h; the bioavailability (in general, dose-corrected exposure relative to a reference, in per cent) came to 3.6 ± 0.8%.

Regarding “d-α-tocopheryl polyethylene glycol succinate [TPGS 1000]”, in the series with Caco-2 cells, the “RHO in vitro efflux inhibition” value is listed as around 40%.
